# Tests used:
# [1] = tested on: sym1Δ cells; assay: Growth in liquid non-fermentable medium with increasing DSF concentrations; format: cell-based, Saccharomyces cerevisiae; conditions: 48 h
# Protocol: (§1) Exponentially growing cells were inoculated in fresh non-fermentable YPG or YPE media supplemented, or not, with increasing DSF concentrations.
# (§2) More precisely, the shy1-G137R and Δcoa6 cells have been grown for 40 h in liquid medium containing 2% glycerol and 0.1% galactose as carbon source and increasing concentrations of DSF (100 nM to 6 μM). The A29G and fmc1Δ cells have been grown for 48 h in liquid medium containing 2% glycerol as carbon source and increasing concentrations of DSF (50 nM to 5 μM). The taz1Δ and sym1Δ cells have been grown for 48 h in rich liquid medium containing 2% ethanol/0.2% galactose and 2% glycerol/2% ethanol as a carbon source, respectively, and increasing concentrations of DSF (100 nM to 9 μM).
# [2] = tested on: shy1-G137R cells; assay: as above; format: cell-based, Saccharomyces cerevisiae; conditions: 40 h, 2% glycerol and 0.1% galactose
# Protocol: as §1, §2
# [3] = tested on: taz1Δ cells; assay: as above; format: cell-based, Saccharomyces cerevisiae; conditions: TAZ1 deletion, 48 h, 2% ethanol/0.2% galactose
# Protocol: as §1, §2
# [4] = tested on: fmc1Δ cells; assay: as above; format: cell-based, Saccharomyces cerevisiae; conditions: 48 h
# Protocol: as §1, §2
# [5] = tested on: A29G cells; assay: as above; format: cell-based, Saccharomyces cerevisiae; conditions: 48 h
# Protocol: as §1, §2
# [6] = tested on: all the tested mutant strains; assay: Halo test of growth on respiratory medium, all strains together (FIG. 1A); format: cell-based, Saccharomyces cerevisiae; conditions: at different extents
# Protocol: A/ Effect of DSF on growth of various mutant yeast strains on a respiratory medium as detected by halo tests.
# Each of the various Saccharomyces cerevisiae yeast strains used in examples 1 to 3 contain different specific mutations modeling human mutations resulting in mitochondrial diseases. At different extents, all these yeast strains present growth defect when grown on respiratory medium such as ethanol or glycerol at 28° C. or 36° C. (depending on the strain). […]
# More precisely, 200 μL of the various yeast mutant strain grown in liquid YPD rich fermentable medium (1% Yeast Extract, 0.5% Bacto Peptone, 2% Glucose) at 0.4 OD600 were spread on agar-based solid respiratory medium: either YPG (1% Yeast Extract, 0.5% Bacto Peptone, 2% glycerol) or YPE (1% Yeast Extract, 0.5% Bacto Peptone, 2% ethanol). Small sterile filters were then placed on the agar surface and increasing concentrations of DSF were added to the filters at the indicated quantities. […]
# [7] = tested on: Δcoa6 cells; assay: Growth in liquid non-fermentable medium with increasing DSF concentrations; format: cell-based; conditions: Saccharomyces cerevisiae, 40 h, read-out: toxic dose (IC50)
# Protocol: as §1, §2
# [8] = Saccharomyces cerevisiae, read-out: toxic dose (IC50)
# [9] = suppression of respiratory growth defect
structure (smiles),measurement,setting,value
"CCN(CC)C(=S)SSC(=S)N(CC)CC [DSF, 1-(diethylthiocarbamoyldisulfanyl)-N,N-diethyl-methanethioamide]",optimal concentration,"[1]; SYM1 deletion, suppression of respiratory growth defect, 2% glycerol/2% ethanol",1 µM
same,IC50,[1]; [8],9 µM
same,IC50,"[2]; Saccharomyces cerevisiae, DSF 100 nM to 6 μM, read-out: toxic dose (IC50)",1.9 µM
same,optimal concentration,[2]; [9],300 nM
same,IC50,"[3]; Saccharomyces cerevisiae, DSF 100 nM to 9 μM, read-out: toxic dose (IC50)",9 µM
same,optimal concentration,[3]; [9],1 µM
same,optimal concentration,"[4]; FMC1 deletion, suppression of respiratory growth defect, 2% glycerol",1 µM
same,IC50,[4]; [8],6 µM
same,optimal concentration,"[5]; A29G mutation, suppression of respiratory growth defect, 2% glycerol",150 to 200 nM
same,IC50,[5]; [8],0.4 µM
same,effect on growth defect on non-fermentable (respiratory) medium,[6],suppresses the growth defect
same,IC50,[7],3.1 µM
